Laboratory results reported in US10220072B2, “Mesalamine for the treatment of cancer” (Cipla Limited, priority 2016, dated 2019).
Read-outs that look alike come from different tables or passages of the source.

What was measured:
[1] = system: Human renal cell carcinoma cell line (A498); experiment: In vivo anti-tumor efficacy in xenograft model; set-up: species or system female athymic nude mice
Description: Healthy 10 female athymic nude mice were recruited for the donor cell inoculation. Animals were subcutaneously injected at flank region with 10 million A498 cells suspended in 200 μl of media and matrigel. Animals were monitored for solid tumor growth. […] Tumors were fragmented in to ˜30 mg size. […] Tumor bearing animals were selected from the experimental animals and grouped on basis of tumor size, into six groups containing 7 animals in each group. […] Group 3 received mesalamine at 250 mg/kg. [table] The tumor sizes were measured weekly twice from the date of tumor appearance till the end of the experiment. Tumor size was measured by digital vernier caliper (MITUTOYO) by measuring length (L=longest axis) and width (W=shortest axis). […] From the tumor volume data mean tumor volume and % tumor growth inhibition (% TGI) were determined.

[2] = system: 10 human tumor xenograft-derived cell suspensions or tumor cell lines of renal cancer; experiment: Clonogenic assay: ex vivo colony formation (anchorage independent growth) in semi-solid medium; format: cell-based; conditions: for IC50: Homo sapiens, mean across 10 renal cancer tumor models, test concentrations 0.0698 mM to 3 mM
Description: In the present study, mesalamine was characterized for their ability to inhibit anchorage independent growth and ex vivo colony formation of tumor cells in semi-solid medium. Mesalamine was tested against 10 human tumor xenograft-derived cell suspensions or tumor cell lines of renal cancer. Test concentrations ranged from 0.0698 mM to 3 mM.
Cell lines were routinely passaged one or twice weekly. All cells were grown at 37° C. in a humidified atmosphere with 5% CO2 in RPMI 1640 medium (Biochrom) supplemented with 10% (v/v) fetal calf serum and 0.1 mg/mL gentamicin. The percentage of viable cells was determined in a Neubauer-hemocytometer using trypan blue exclusion.
Tumor xenografts (patient-derived, as well as cell line-derived xenografts) were passaged as subcutaneous xenografts in NMRI nu/nu mice. At a tumor volume of 400-1000 mm^3 tumor-bearing mice were sacrificed and tumors were collected under sterile conditions without delay according to the relevant Oncotest SOPs and the relevant animal welfare guidelines published by the FELASA and the GV-SOLAS. Tumors were mechanically disaggregated and subsequently incubated with an enzyme cocktail consisting of collagenase type IV (41 U/mL), DNase I (125 U/mL), hyaluronidase type III (100 U/mL), and dispase II (1.0 U/mL) in RPMI 1640 medium (Life Technologies) at 37° C. for 60-120 minutes. Cells were passed through sieves of 100 μm and 40 μm mesh size (Cell Strainer, BD Falcon™), and washed with RPMI 1640 medium. The percentage of viable cells was determined in a Neubauer-hemocytometer using trypan blue exclusion. Aliquots of the cells were frozen down, and stored in liquid nitrogen. On each day of an experiment, a frozen aliquot of tumor cells was thawed and used for preparation of assay plates.
The clonogenic assay was carried out in a 96 well plate format using ultra low attachment plates. […] Cultures were incubated at 37° C. and 7.5% CO2 in a humidified atmosphere for 8 to 13 days and monitored closely for colony growth using an inverted microscope. […]

[3] = G3, 250 mg/kg p.o. q.d.x21, Day 1
[4] = G3, 250 mg/kg p.o. q.d.x21, Day 6
[5] = G3, 250 mg/kg p.o. q.d.x21, Day 9
[6] = G3, 250 mg/kg p.o. q.d.x21, Day 13
[7] = G3, 250 mg/kg p.o. q.d.x21, Day 16
[8] = G3, 250 mg/kg p.o. q.d.x21, Day 20
[9] = G2, 20 mg/kg p.o. q.d.x21 (sub-therapeutic dose), Day 1
[10] = G2, 20 mg/kg p.o. q.d.x21 (sub-therapeutic dose), Day 6
[11] = G2, 20 mg/kg p.o. q.d.x21 (sub-therapeutic dose), Day 9
[12] = G2, 20 mg/kg p.o. q.d.x21 (sub-therapeutic dose), Day 13
[13] = G2, 20 mg/kg p.o. q.d.x21 (sub-therapeutic dose), Day 16
[14] = G2, 20 mg/kg p.o. q.d.x21 (sub-therapeutic dose), Day 20

How did the “Mean Tumor Growth Inhibition (% TGI)” value [1, 3] turn out when Nc1ccc(O)c(C(=O)O)c1 [Mesalamine, 5-amino-2-hydroxybenzoic acid] was run?
Its value is 1.56%.

And the “Mean Tumor Volume” value [1, 3]?
The value was 145.26 mm^3.

And the “Mean Tumor Growth Inhibition (% TGI)” value [1, 4]?
The value was 51.29%.

What about the “Mean Tumor Volume” value [1, 4] of the same molecule?
The value was 161.68 mm^3.

And the “Mean Tumor Growth Inhibition (% TGI)” value [1, 5]?
Its value is 46.01%.

And the “Mean Tumor Volume” value [1, 5]?
The value was 250.41 mm^3.

And the “Mean Tumor Growth Inhibition (% TGI)” value [1, 6]?
The value was 51.09%.

And the “Mean Tumor Volume” value [1, 6]?
Its value is 301.82 mm^3.

And the “Mean Tumor Growth Inhibition (% TGI)” value [1, 7]?
The value was 47.87%.

And the “Mean Tumor Volume” value [1, 7]?
Its value is 501.10 mm^3.

And the “Mean Tumor Growth Inhibition (% TGI)” value [1, 8]?
The value was 58.08%.

What about the “Mean Tumor Volume” value [1, 8] of the same molecule?
The value was 536.78 mm^3.

What about the “inhibiting tumor formation (anti-tumor efficacy by itself)” value ([1]; at the dose tested (250 mg/kg p.o. q.d.x21)) of the same molecule?
Its value is “more than 50%”.

What about the “anti-tumor efficacy compared with standard” value ([1]; mesalamine 250 mg/kg vs sunitinib 20 mg/kg, p.o. q.d.x21) of the same molecule?
Its value is “comparable to sunitinib”.

What about the IC50 ([2]; continuous exposure 8 to 13 days, read-out: mean relative IC50 value, inhibition of colony formation) of the same molecule?
The IC50 was 1210 µM.

What about the IC50 ([2]; read-out: second mean IC50 value printed in brackets after the mean relative IC50) of the same molecule?
The IC50 was 1260 µM.

What about the “Bottom plateaus of the concentration-effect curves of responding tumor models” value ([2]; responding tumor models) of the same molecule?
Its value is 0 to 18%.

For CCN(CC)CCNC(=O)c1c(C)[nH]c(/C=C2\C(=O)Nc3ccc(F)cc32)c1C [Sunitinib], which “Mean Tumor Growth Inhibition (% TGI)” value [1, 9] is on record?
Its value is 1.47%.

What about the “Mean Tumor Volume” value [1, 9] of the same molecule?
Its value is 145.40 mm^3.

What about the “Mean Tumor Growth Inhibition (% TGI)” value [1, 10] of the same molecule?
The value was 47.31%.

And the “Mean Tumor Volume” value [1, 10]?
The value was 174.90 mm^3.

And the “Mean Tumor Growth Inhibition (% TGI)” value [1, 11]?
The value was 43.52%.

And the “Mean Tumor Volume” value [1, 11]?
Its value is 261.95 mm^3.

And the “Mean Tumor Growth Inhibition (% TGI)” value [1, 12]?
The value was 44.80%.

What about the “Mean Tumor Volume” value [1, 12] of the same molecule?
Its value is 340.62 mm^3.

And the “Mean Tumor Growth Inhibition (% TGI)” value [1, 13]?
The value was 53.39%.

What about the “Mean Tumor Volume” value [1, 13] of the same molecule?
The value was 448.05 mm^3.

And the “Mean Tumor Growth Inhibition (% TGI)” value [1, 14]?
The value was 50.78%.

What about the “Mean Tumor Volume” value [1, 14] of the same molecule?
The value was 630.25 mm^3.
